The text below walks through data of article PMC9753424 (2022).

Holding throughout (assay): bio-layer interferometry
Background: Biolayer interferometry detects binding as a change in optical thickness at a sensor tip.

Experiment [1] has as its system MYC-G4 (DNA, G4) TGAGGGTGGGTAGGGTGGGTAA
Conditions: PBS (ion concentrations not given), 0.5% DMSO, 0.02% Tween-20, 25 °C sensor hydration.

The subject of experiment [2] is ssDNA oligonucleotide (DNA, single strand) GGCATAGTGCGTGGGCG
Conditions: PBS (ion concentrations not given), 0.5% DMSO, 0.02% Tween-20, highest hemin 8 μM.

Experiment [3] has as its system double-stranded DNA (DNA, duplex) GGCATAGTGCGTGGGCG/CGCCCACGCACTATGCC
The settings on record: PBS (ion concentrations not given), 0.5% DMSO, 0.02% Tween-20, highest hemin 8 μM.

Experiment [4] concerns SPB1-G4 (DNA, G4) GGCGAGGGGCGTGGCCGGC
The settings on record: PBS (ion concentrations not given), 0.5% DMSO, 0.02% Tween-20, highest hemin 8 μM.

For experiment [5], the system named is hTELO-G4 (DNA, G4) GGTTAGGGTTAGGGTTAGGGTTAGGGTTAG
Conditions: PBS (ion concentrations not given), 0.5% DMSO, 0.02% Tween-20, highest hemin 8 μM.

Experiment [6] concerns intermolecular hTELO-G4 (DNA, G4) TTAGGGTTAGGGTTAGGG
The settings on record: PBS (ion concentrations not given), 0.5% DMSO, 0.02% Tween-20, highest hemin 8 μM.

In the case of `C=CC1=C(C)c2cc3[nH]c(cc4nc(cc5[nH]c(cc1n2)c(C)c5CCC(=O)O)C(CCC(=O)O)=C4C)c(C)c3C=C`, in experiment [1] (PpIX 1.25-20 μM), the KD (as a rule, the equilibrium constant for the complex coming apart) is 3.04 ± 0.05 µM. In other words, the single-digit micromolar range.
As to `C=CC1=C(C)c2cc3[n-]c(cc4[n-]c(cc5nc(cc1n2)C(C)=C5C=C)c(C)c4CCC(=O)O)c(CCC(=O)O)c3C.[Cl-].[Fe+3]`, in experiment [1] (hemin 0.5-8 μM), the KD was found to be 1.52 ± 0.04 µM. For the same molecule, the binding result in experiment [2], in experiment [3], in experiment [4], in experiment [5] and in experiment [6] was “no” in each case.
